The NIST ThermoML archive (doi:10.1021/acs.jced.7b00750)
Numbers after ± are expanded uncertainties.

Assay: xn = mol fraction of the nth substance listed
Conditions: 100 kPa, Liquid, Vibrating tube method

CNC(N)=O [methylurea] + O
Conditions	mass density [kg/m3]
274.15 K, x1 = 0.00244	1001.77 ± 0.13
274.15 K, x1 = 0.00291	1002.12 ± 0.13
274.15 K, x1 = 0.00483	1003.58 ± 0.13
274.15 K, x1 = 0.00553	1004.11 ± 0.13
274.15 K, x1 = 0.00799	1005.96 ± 0.13
274.15 K, x1 = 0.00834	1006.21 ± 0.13
274.15 K, x1 = 0.01081	1008.05 ± 0.13
274.15 K, x1 = 0.01421	1010.56 ± 0.13
275.15 K, x1 = 0.00244	1001.8 ± 0.13
275.15 K, x1 = 0.00291	1002.15 ± 0.13
275.15 K, x1 = 0.00483	1003.6 ± 0.13
275.15 K, x1 = 0.00553	1004.13 ± 0.13
275.15 K, x1 = 0.00799	1005.98 ± 0.13
275.15 K, x1 = 0.00834	1006.23 ± 0.13
275.15 K, x1 = 0.01081	1008.07 ± 0.13
275.15 K, x1 = 0.01421	1010.58 ± 0.13
276.15 K, x1 = 0.00244	1001.82 ± 0.13
276.15 K, x1 = 0.00291	1002.17 ± 0.13
276.15 K, x1 = 0.00483	1003.62 ± 0.13
276.15 K, x1 = 0.00553	1004.14 ± 0.15
276.15 K, x1 = 0.00799	1005.98 ± 0.13
276.15 K, x1 = 0.00834	1006.24 ± 0.15
276.15 K, x1 = 0.01081	1008.06 ± 0.13
276.15 K, x1 = 0.01421	1010.58 ± 0.13
277.15 K, x1 = 0.00244	1001.82 ± 0.13
277.15 K, x1 = 0.00291	1002.17 ± 0.13
277.15 K, x1 = 0.00483	1003.61 ± 0.13
277.15 K, x1 = 0.00553	1004.13 ± 0.13
277.15 K, x1 = 0.00799	1005.97 ± 0.13
277.15 K, x1 = 0.00834	1006.23 ± 0.13
277.15 K, x1 = 0.01081	1008.05 ± 0.13
277.15 K, x1 = 0.01421	1010.54 ± 0.13
278.15 K, x1 = 0.00244	1001.8 ± 0.13
278.15 K, x1 = 0.00291	1002.15 ± 0.13
278.15 K, x1 = 0.00483	1003.58 ± 0.13
278.15 K, x1 = 0.00553	1004.1 ± 0.13
278.15 K, x1 = 0.00799	1005.92 ± 0.13
278.15 K, x1 = 0.00834	1006.18 ± 0.13
278.15 K, x1 = 0.01081	1007.99 ± 0.13
278.15 K, x1 = 0.01421	1010.45 ± 0.13
278.15 K, x1 = 0.01662	1012.18 ± 0.13
278.15 K, x1 = 0.019	1013.89 ± 0.13
278.15 K, x1 = 0.02321	1016.84 ± 0.13
278.15 K, x1 = 0.03185	1022.7 ± 0.13
278.15 K, x1 = 0.04218	1029.47 ± 0.13
278.15 K, x1 = 0.05184	1035.47 ± 0.13
278.15 K, x1 = 0.06068	1040.78 ± 0.14
278.15 K, x1 = 0.07071	1046.57 ± 0.14
279.15 K, x1 = 0.00244	1001.76 ± 0.13
279.15 K, x1 = 0.00291	1002.11 ± 0.13
279.15 K, x1 = 0.00483	1003.53 ± 0.13
279.15 K, x1 = 0.00553	1004.05 ± 0.13
279.15 K, x1 = 0.00799	1005.86 ± 0.13
279.15 K, x1 = 0.00834	1006.11 ± 0.13
279.15 K, x1 = 0.01081	1007.92 ± 0.13
279.15 K, x1 = 0.01421	1010.37 ± 0.13
280.15 K, x1 = 0.00244	1001.71 ± 0.13
280.15 K, x1 = 0.00291	1002.05 ± 0.13
280.15 K, x1 = 0.00483	1003.47 ± 0.13
280.15 K, x1 = 0.00553	1003.98 ± 0.13
280.15 K, x1 = 0.00799	1005.78 ± 0.13
280.15 K, x1 = 0.00834	1006.03 ± 0.13
280.15 K, x1 = 0.01081	1007.83 ± 0.13
280.15 K, x1 = 0.01421	1010.26 ± 0.13
281.15 K, x1 = 0.00244	1001.65 ± 0.13
281.15 K, x1 = 0.00291	1001.99 ± 0.13
281.15 K, x1 = 0.00483	1003.39 ± 0.13
281.15 K, x1 = 0.00553	1003.9 ± 0.13
281.15 K, x1 = 0.00799	1005.7 ± 0.13
281.15 K, x1 = 0.00834	1005.95 ± 0.13
281.15 K, x1 = 0.01081	1007.72 ± 0.13
281.15 K, x1 = 0.01421	1010.15 ± 0.13
282.15 K, x1 = 0.00244	1001.57 ± 0.13
282.15 K, x1 = 0.00291	1001.91 ± 0.13
282.15 K, x1 = 0.00483	1003.31 ± 0.13
282.15 K, x1 = 0.00553	1003.81 ± 0.13
282.15 K, x1 = 0.00799	1005.59 ± 0.13
282.15 K, x1 = 0.00834	1005.84 ± 0.13
282.15 K, x1 = 0.01081	1007.61 ± 0.13
282.15 K, x1 = 0.01421	1010.02 ± 0.13
283.15 K, x1 = 0.00244	1001.47 ± 0.13
283.15 K, x1 = 0.00291	1001.81 ± 0.13
283.15 K, x1 = 0.00483	1003.2 ± 0.13
283.15 K, x1 = 0.00553	1003.71 ± 0.13
283.15 K, x1 = 0.00799	1005.48 ± 0.13
283.15 K, x1 = 0.00834	1005.72 ± 0.13
283.15 K, x1 = 0.01081	1007.48 ± 0.13
283.15 K, x1 = 0.01421	1009.88 ± 0.13
288.15 K, x1 = 0.00244	1000.82 ± 0.15
288.15 K, x1 = 0.00291	1001.15 ± 0.11
288.15 K, x1 = 0.00483	1002.51 ± 0.13
288.15 K, x1 = 0.00553	1003 ± 0.13
288.15 K, x1 = 0.00799	1004.72 ± 0.16
288.15 K, x1 = 0.00834	1004.96 ± 0.11
288.15 K, x1 = 0.01081	1006.67 ± 0.13
288.15 K, x1 = 0.01421	1009.02 ± 0.13
288.15 K, x1 = 0.01662	1010.63 ± 0.13
288.15 K, x1 = 0.019	1012.22 ± 0.13
288.15 K, x1 = 0.02321	1015 ± 0.13
288.15 K, x1 = 0.03185	1020.53 ± 0.13
288.15 K, x1 = 0.04218	1026.9 ± 0.13
288.15 K, x1 = 0.05184	1032.59 ± 0.13
288.15 K, x1 = 0.06068	1037.58 ± 0.13
288.15 K, x1 = 0.07071	1043.01 ± 0.14
298.15 K, x1 = 0.00244	998.69 ± 0.17
298.15 K, x1 = 0.00291	999 ± 0.11
298.15 K, x1 = 0.00483	1000.3 ± 0.12
298.15 K, x1 = 0.00553	1000.76 ± 0.13
298.15 K, x1 = 0.00799	1002.41 ± 0.18
298.15 K, x1 = 0.00834	1002.63 ± 0.11
298.15 K, x1 = 0.01081	1004.26 ± 0.13
298.15 K, x1 = 0.01421	1006.48 ± 0.13
298.15 K, x1 = 0.01662	1008.05 ± 0.13
298.15 K, x1 = 0.019	1009.57 ± 0.13
298.15 K, x1 = 0.02321	1012.2 ± 0.13
298.15 K, x1 = 0.03185	1017.45 ± 0.13
298.15 K, x1 = 0.04218	1023.52 ± 0.13
298.15 K, x1 = 0.05184	1028.96 ± 0.13
298.15 K, x1 = 0.06068	1033.74 ± 0.13
298.15 K, x1 = 0.07071	1038.96 ± 0.14
308.15 K, x1 = 0.00244	995.62 ± 0.18
308.15 K, x1 = 0.00291	995.92 ± 0.11
308.15 K, x1 = 0.00483	997.16 ± 0.12
308.15 K, x1 = 0.00553	997.61 ± 0.13
308.15 K, x1 = 0.00799	999.19 ± 0.2
308.15 K, x1 = 0.00834	999.41 ± 0.12
308.15 K, x1 = 0.01081	1000.97 ± 0.13
308.15 K, x1 = 0.01421	1003.1 ± 0.13
308.15 K, x1 = 0.01662	1004.61 ± 0.13
308.15 K, x1 = 0.019	1006.07 ± 0.13
308.15 K, x1 = 0.02321	1008.61 ± 0.13
308.15 K, x1 = 0.03185	1013.65 ± 0.13
308.15 K, x1 = 0.04218	1019.45 ± 0.13
308.15 K, x1 = 0.05184	1024.66 ± 0.13
308.15 K, x1 = 0.06068	1029.26 ± 0.13
308.15 K, x1 = 0.07071	1034.27 ± 0.13
323.15 K, x1 = 0.00244	989.55 ± 0.17
323.15 K, x1 = 0.00291	989.84 ± 0.11
323.15 K, x1 = 0.00483	991.02 ± 0.12
323.15 K, x1 = 0.00553	991.45 ± 0.13
323.15 K, x1 = 0.00799	992.95 ± 0.19
323.15 K, x1 = 0.00834	993.16 ± 0.12
323.15 K, x1 = 0.01081	994.63 ± 0.13
323.15 K, x1 = 0.01421	996.66 ± 0.13
323.15 K, x1 = 0.01662	998.09 ± 0.13
323.15 K, x1 = 0.019	999.47 ± 0.13
323.15 K, x1 = 0.02321	1001.87 ± 0.13
323.15 K, x1 = 0.03185	1006.67 ± 0.13
323.15 K, x1 = 0.04218	1012.19 ± 0.13
323.15 K, x1 = 0.05184	1017.13 ± 0.13
323.15 K, x1 = 0.06068	1021.48 ± 0.13
323.15 K, x1 = 0.07071	1026.24 ± 0.13
333.15 K, x1 = 0.00244	984.67 ± 0.13
333.15 K, x1 = 0.00291	984.95 ± 0.13
333.15 K, x1 = 0.00483	986.09 ± 0.13
333.15 K, x1 = 0.00553	986.51 ± 0.13
333.15 K, x1 = 0.00799	987.96 ± 0.13
333.15 K, x1 = 0.00834	988.16 ± 0.13
333.15 K, x1 = 0.01081	989.6 ± 0.13
333.15 K, x1 = 0.01421	991.56 ± 0.13
333.15 K, x1 = 0.01662	992.96 ± 0.13
333.15 K, x1 = 0.019	994.26 ± 0.13
333.15 K, x1 = 0.02321	996.6 ± 0.13
333.15 K, x1 = 0.03185	1001.3 ± 0.13
333.15 K, x1 = 0.04218	1006.7 ± 0.13
333.15 K, x1 = 0.05184	1011.49 ± 0.13
333.15 K, x1 = 0.06068	1015.72 ± 0.13
333.15 K, x1 = 0.07071	1020.32 ± 0.13
